# Measured values published in patent US8575211B2, “Synergistic combination of analgesic compounds” (Biocodex, priority 2008, dated 2013).
# Counter-ions that a name gives are not always drawn. Like-named read-outs stand apart in the source and are kept apart here.
# What was measured:
# [1] = test system: abdominal cramps induced in mice by acetic acid; assay: abdominal cramps induced in mice by intraperitoneal acetic acid, products by the subcutaneous route; format: in vivo; conditions: for ED50: Mus musculus, product alone, subcutaneous, 30 min before acetic acid i.p., read-out: ED50 (dose producing 50% reduction in the number of cramps)
# Procedure: The analgesic effect of a nefopam-ibuprofen combination was studied in the model of abdominal cramps induced in mice by the intraperitoneal administration of acetic acid. This model of pain induced by a chemical substance corresponds to acute, visceral, inflammatory pain. Male CD1 mice (C. River breed) weighing from 25 to 30 grams are used after an acclimatization of at least 7 days in the animal facility (t°=22±2; hygrometry=50±20%; food […]-darkness: […])). On the day of the experiment, the non-fasting mice are weighed, marked and divided at random into groups of 10. The acetic acid solution (Sigma) is prepared at 0.6% (0.1 ml/10 g) i.e. 60 mg of acetic acid in 10 ml of NaCl at 0.9%. At t=0, the mouse receives the product under study or the carrier liquid by the subcutaneous route (0.1 ml/10 g). At t=30 minutes, the acetic acid is injected by the intraperitoneal route (0.1 ml/10 g). A count is taken of the number of abdominal cramps from 5 to 20 minutes after the injection of acetic acid. Clear abdominal cramps characterized by stretching of the hind paws and/or hollowing of the flanks with writhing are regarded as positive. Nefopam hydrochloride (Biocodex, lot 38) (referred to hereinafter simply as nefopam) is dissolved in distilled water or in NaCl at 0.9%. The ibuprofen (Sigma, ref 1-4883) is suspended in Tween 80 at 1%. The test used is a variance analysis based on 3 groups and a Student's t test for 2 groups. The treated group(s) that differ(s) from the control group is (are) then determined. The effective doses for 50% antinociceptive effect (ED50) are calculated using the PharmToolsPro program (version 1.1.27, […] Group Inc.) in accordance with the Tallarida (2000) method Drugs synergism and dose-effect data analysis CRC Press). At least 10 mice are used for each dose, and at least 3 doses are used to determine the dose-response curve. The dose that produces 50% antinociceptive effect (50% reduction in the number of cramps) is calculated by a standard linear regression analysis of the dose-response curve. The interaction is evaluated by an isobolographic analysis of the co-administration of a combination of doses at a fixed ratio according to Tallarida (2000) op. cit., Tallarida et al. (1989) Life Sci. 45:947-961 and Tallarida et al. (1997) Life Sci. 61:PL417-PL425. The isobologram is constructed by joining the ED50 of the ibuprofen with that of the nefopam in order to obtain the additivity line. The ED50 of the combination is determined by linear regression analysis of the dose-response curve and it is compared by at test with a theoretical additive ED50 obtained using the PharmToolsPro software.
# [2] = test system: abdominal cramps induced in mice by acetic acid; conditions: oral route, cited from earlier work
structure (smiles),measurement,setting,value
"CC(C)Cc1ccc(C(C)C(=O)O)cc1 (stereo not shown) [Ibuprofen, ibuprofen]",ED50,[1],18.6 ± 2.4 mg/kg
same,% variation of number of cramps,[1]; ibuprofen 1 mg/kg s.c.,+7%
same,Number of cramps (mean ± sem),[1]; ibuprofen 1 mg/kg s.c.,40.2 ± 3.2
same,% variation of number of cramps,[1]; ibuprofen 3 mg/kg s.c.,+14%
same,Number of cramps (mean ± sem),[1]; ibuprofen 3 mg/kg s.c.,43.0 ± 6.6
same,% variation of number of cramps,[1]; ibuprofen 10 mg/kg s.c.,−29%
same,Number of cramps (mean ± sem),[1]; ibuprofen 10 mg/kg s.c.,26.8 ± 3.9
same,% variation of number of cramps,[1]; ibuprofen 20 mg/kg s.c.,−41%
same,Number of cramps (mean ± sem),[1]; ibuprofen 20 mg/kg s.c.,22.0 ± 2.0
same,% variation of number of cramps,[1]; ibuprofen 30 mg/kg s.c.,−68%
same,Number of cramps (mean ± sem),[1]; ibuprofen 30 mg/kg s.c.,12.1 ± 2.7
same,% variation of number of cramps,[1]; ibuprofen 50 mg/kg s.c.,−84%
same,Number of cramps (mean ± sem),[1]; ibuprofen 50 mg/kg s.c.,5.9 ± 1.3
same,% variation of number of cramps,[1]; ibuprofen 100 mg/kg s.c.,−84%
same,Number of cramps (mean ± sem),[1]; ibuprofen 100 mg/kg s.c.,6.0 ± 1.4
same,dose from which antinociceptive activity is significant,[2]; Dolezal & Kusiak (2002),≥ 30 mg/kg
same,ED50,[2]; Jones et al. (2005),95 mg/kg
"CN1CCOC(c2ccccc2)c2ccccc2C1 (stereo not shown) [Nefopam, Nefopam hydrochloride]",ED50,[1],2.4 ± 0.215 mg/kg
same,% variation of number of cramps,[1]; nefopam 0.3 mg/kg s.c.,−9%
same,Number of cramps (mean ± sem),[1]; nefopam 0.3 mg/kg s.c.,33.6 ± 3.8
same,% variation of number of cramps,[1]; nefopam 1.0 mg/kg s.c.,−25%
same,Number of cramps (mean ± sem),[1]; nefopam 1.0 mg/kg s.c.,28.0 ± 6.3
same,% variation of number of cramps,[1]; nefopam 3.0 mg/kg s.c.,−55%
same,Number of cramps (mean ± sem),[1]; nefopam 3.0 mg/kg s.c.,16.7 ± 2.0
same,% variation of number of cramps,[1]; nefopam 10.0 mg/kg s.c.,−81%
same,Number of cramps (mean ± sem),[1]; nefopam 10.0 mg/kg s.c.,7.1 ± 1.7
same,% variation of number of cramps,[1]; nefopam 20.0 mg/kg s.c.,−98%
same,Number of cramps (mean ± sem),[1]; nefopam 20.0 mg/kg s.c.,0.6 ± 0.3
